Activity calls are given as the source filed them.
Tests used:
[1] = target: T1, Histone-lysine N-methyltransferase NSD2 (Homo sapiens, UniProt O96028); format: biochemical
T1 sequence (O96028 whole entry): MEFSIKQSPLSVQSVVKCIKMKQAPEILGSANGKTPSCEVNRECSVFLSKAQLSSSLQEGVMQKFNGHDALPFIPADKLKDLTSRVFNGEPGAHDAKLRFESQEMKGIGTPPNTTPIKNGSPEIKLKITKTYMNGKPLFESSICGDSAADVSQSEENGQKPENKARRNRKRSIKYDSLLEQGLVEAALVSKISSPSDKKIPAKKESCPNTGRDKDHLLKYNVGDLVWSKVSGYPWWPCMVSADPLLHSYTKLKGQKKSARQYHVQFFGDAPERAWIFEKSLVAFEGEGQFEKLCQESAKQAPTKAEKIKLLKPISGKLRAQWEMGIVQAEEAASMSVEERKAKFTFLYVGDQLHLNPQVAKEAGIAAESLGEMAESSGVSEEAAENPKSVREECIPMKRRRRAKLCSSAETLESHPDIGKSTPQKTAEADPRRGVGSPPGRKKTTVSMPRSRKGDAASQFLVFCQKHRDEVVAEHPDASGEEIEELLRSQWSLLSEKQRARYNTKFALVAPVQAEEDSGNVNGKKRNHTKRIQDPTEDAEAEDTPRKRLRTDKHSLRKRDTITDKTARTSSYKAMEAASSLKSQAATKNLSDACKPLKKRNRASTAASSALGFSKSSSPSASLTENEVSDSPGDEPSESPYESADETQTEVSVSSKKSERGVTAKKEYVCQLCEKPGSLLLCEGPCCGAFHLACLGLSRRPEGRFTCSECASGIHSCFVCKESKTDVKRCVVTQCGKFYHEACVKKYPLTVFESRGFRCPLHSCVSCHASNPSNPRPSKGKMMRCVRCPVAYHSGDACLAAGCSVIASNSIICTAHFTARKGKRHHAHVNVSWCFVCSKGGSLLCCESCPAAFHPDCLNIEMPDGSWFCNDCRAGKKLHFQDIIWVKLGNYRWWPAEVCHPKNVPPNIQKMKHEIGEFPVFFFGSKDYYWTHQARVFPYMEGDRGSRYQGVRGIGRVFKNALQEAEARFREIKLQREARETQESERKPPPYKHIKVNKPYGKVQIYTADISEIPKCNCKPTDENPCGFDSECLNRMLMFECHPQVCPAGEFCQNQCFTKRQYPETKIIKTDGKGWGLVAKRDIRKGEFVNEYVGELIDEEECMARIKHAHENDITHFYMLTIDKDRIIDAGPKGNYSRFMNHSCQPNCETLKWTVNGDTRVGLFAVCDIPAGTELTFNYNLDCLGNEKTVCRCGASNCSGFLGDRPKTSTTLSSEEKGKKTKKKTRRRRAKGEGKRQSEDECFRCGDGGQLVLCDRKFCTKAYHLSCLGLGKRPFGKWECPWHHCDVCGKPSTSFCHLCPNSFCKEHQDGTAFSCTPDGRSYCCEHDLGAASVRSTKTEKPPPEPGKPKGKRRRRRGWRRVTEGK

[2] = target: T2, Microphthalmia-associated transcription factor (Homo sapiens, UniProt O75030); experiment: TRPM1 promoter luciferase signal decrease, dose response, MITF inhibitor project, cell-based, SK-MEL-5, cherry-picked, set 3 (AID 493073); format: functional
T2 sequence (O75030 whole entry): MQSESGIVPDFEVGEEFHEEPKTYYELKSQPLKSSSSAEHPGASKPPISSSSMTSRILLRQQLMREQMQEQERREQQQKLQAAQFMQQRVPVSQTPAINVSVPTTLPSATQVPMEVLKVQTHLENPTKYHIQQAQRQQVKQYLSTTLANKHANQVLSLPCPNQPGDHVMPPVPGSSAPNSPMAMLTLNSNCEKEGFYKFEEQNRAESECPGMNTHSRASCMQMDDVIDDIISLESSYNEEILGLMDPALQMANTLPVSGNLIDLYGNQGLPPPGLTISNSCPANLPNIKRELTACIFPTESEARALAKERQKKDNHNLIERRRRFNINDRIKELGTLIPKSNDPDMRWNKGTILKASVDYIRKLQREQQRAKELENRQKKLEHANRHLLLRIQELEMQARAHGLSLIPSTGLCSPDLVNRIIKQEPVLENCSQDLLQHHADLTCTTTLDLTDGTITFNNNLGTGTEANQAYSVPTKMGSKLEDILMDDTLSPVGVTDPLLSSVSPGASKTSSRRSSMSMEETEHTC

[3] = microbe, parasite or virus in culture; format: functional; conditions: Mycobacterium tuberculosis
A-375 = experiment: MITF: Counter assay: A375 proliferation Measured in Cell-Based System Using Plate Reader - 2084-03_Inhibitor_Dose_DryPowder_Activity. [Related pubchem assays (depositor defined):AID488944]; format: functional; conditions: Homo sapiens
Leucine aminopeptidase = target: T3, Leucine aminopeptidase (Plasmodium falciparum 3D7, UniProt Q8IL11); experiment: P. falciparum M17LAP inhibitors, primary screen, biochemical, fluorogenic H-Leu-NHMec substrate, 1536-well (AID 1619); format: functional
T3 sequence (Q8IL11 whole entry): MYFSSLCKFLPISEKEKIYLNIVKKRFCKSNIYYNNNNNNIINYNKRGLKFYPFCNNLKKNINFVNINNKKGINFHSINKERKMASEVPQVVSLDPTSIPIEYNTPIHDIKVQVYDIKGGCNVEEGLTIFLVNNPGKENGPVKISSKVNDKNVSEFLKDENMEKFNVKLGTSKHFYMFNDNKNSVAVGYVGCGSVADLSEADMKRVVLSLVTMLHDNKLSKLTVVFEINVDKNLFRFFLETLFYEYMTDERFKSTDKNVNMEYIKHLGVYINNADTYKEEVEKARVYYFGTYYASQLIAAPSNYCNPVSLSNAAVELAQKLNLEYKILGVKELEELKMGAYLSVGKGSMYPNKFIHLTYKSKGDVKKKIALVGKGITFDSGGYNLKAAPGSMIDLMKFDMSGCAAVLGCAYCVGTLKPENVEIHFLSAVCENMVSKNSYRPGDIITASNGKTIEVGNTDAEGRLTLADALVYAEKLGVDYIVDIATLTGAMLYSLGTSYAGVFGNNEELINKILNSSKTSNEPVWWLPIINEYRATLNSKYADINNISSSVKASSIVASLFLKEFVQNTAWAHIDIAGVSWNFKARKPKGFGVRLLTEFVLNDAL

Aspartyl aminopeptidase = Aspartyl aminopeptidase (Plasmodium falciparum 3D7, UniProt Q8I2J3); experiment: Counterscreen for inhibitors of M1 and M17 aminopeptidases: QFRET-based biochemical high throughput dose response assay for inhibitors of the Plasmodium falciparum M18 Aspartyl Aminopeptidase (PFM18AAP). [Related PubChem assays: 1619 (Screening assay (M17LAP inhibitors).), 1445 (Screening assay (M1AAP inhibitors).)]
Procathepsin L = Procathepsin L (Homo sapiens, UniProt P07711); experiment: cathepsin L inhibitors, dose response, counter-screen for M1/M17 aminopeptidase inhibitor project, biochemical, QFRET, 1536-well (AID 2214)
Escherichia coli = experiment: microbe, parasite or virus in culture
Jurkat = experiment: SAR Analysis of small molecule inhibitors of T-cell specific antigen receptor-induced NF-kB activation in a Jurkat cell line using a luminescence assay - Set 2. [Related pubchem assays (depositor defined):AID435003, AID435012, AID465]; format: functional, cell-based; conditions: Homo sapiens
HEK293 [4] = experiment: cytotoxicity in HEK293T NF-kB-Luc cells, SAR follow-up, cytotoxicity control for NF-kB activator project, cell-based, resazurin fluorescence (AID 493251); format: functional; conditions: Homo sapiens
HEK293 [5] = experiment: SAR Analysis of small molecule inhibitors of T-cell specific antigen receptor-induced NF-kB activation in a HEK-293T cell line using a luminescence assay - Set 2. [Related pubchem assays (depositor defined):AID435003, AID435012, AID489026]; format: functional, cell-based; conditions: Homo sapiens

Sequence of Procathepsin L (P07711 whole entry): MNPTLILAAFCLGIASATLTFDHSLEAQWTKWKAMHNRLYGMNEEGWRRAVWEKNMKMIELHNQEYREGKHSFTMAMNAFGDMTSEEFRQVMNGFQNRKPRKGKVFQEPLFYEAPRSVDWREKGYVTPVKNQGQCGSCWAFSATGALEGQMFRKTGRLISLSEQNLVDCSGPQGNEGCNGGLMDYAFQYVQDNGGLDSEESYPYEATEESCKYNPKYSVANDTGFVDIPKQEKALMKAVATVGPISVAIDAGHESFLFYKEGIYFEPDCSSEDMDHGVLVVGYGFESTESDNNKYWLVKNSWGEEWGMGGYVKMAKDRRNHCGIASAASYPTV
Sequence of Aspartyl aminopeptidase (Q8I2J3 whole entry): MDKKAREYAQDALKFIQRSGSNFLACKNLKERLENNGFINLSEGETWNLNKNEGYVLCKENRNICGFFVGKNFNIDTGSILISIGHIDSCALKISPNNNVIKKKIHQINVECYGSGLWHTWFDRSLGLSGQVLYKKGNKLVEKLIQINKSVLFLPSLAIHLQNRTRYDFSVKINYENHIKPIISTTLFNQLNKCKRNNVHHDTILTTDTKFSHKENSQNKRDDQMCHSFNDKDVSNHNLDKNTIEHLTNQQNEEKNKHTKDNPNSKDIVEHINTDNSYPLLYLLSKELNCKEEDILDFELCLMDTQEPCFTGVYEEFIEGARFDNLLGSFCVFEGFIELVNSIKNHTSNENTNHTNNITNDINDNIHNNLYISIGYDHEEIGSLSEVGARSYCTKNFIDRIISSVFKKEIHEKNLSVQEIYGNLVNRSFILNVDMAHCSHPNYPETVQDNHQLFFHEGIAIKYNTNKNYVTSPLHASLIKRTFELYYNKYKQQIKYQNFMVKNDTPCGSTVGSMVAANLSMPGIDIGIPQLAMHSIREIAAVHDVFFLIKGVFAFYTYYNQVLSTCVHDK

## CC1C/C(=C\c2cccnc2)C(=O)/C(=C/c2cccnc2)C1 (stereo unspecified)
[1]
  AC50: 19 µM (active)
[2]
  AC50: 2.66 µM (active)
[3]
  CC50: 15.3 µM (active)
A-375
  AC50: 21.5 µM (active)

## COc1ccc2nc(SCC(=O)Nc3cc(OC)c(OC)cc3C(=O)O)c(C)cc2c1
Leucine aminopeptidase
  IC50: < 1 µM (active)
Aspartyl aminopeptidase
  IC50: > 73.5 µM (not active)
Procathepsin L
  IC50: > 59.6 µM (not active)
Escherichia coli
  AC50: 27.6 µM (active)

## CCOc1ccc(-c2nc(CS(=O)(=O)CC(=O)NCc3ccc(F)cc3)c(C)o2)cc1
Jurkat
  IC50: > 79 µM (inactive)
HEK293 [4]
  IC50: > 80 µM (inactive)
HEK293 [5]
  IC50: > 80 µM (inactive)

— ChEMBL document CHEMBL1201862, “PubChem BioAssay data set” (2004)
